Numbers after ± are expanded uncertainties.
Test: molar heat capacity at constant pressure; wn = mass fraction of the nth substance listed
Conditions: Small (less than 1 g) adiabatic calorimetry

CCCCn1cc[n+](C)c1.[Br-] [1-butyl-3-methylimidazolium bromide] + O
Crystal
Conditions | molar heat capacity at constant pressure [J/K/mol]
80.69 K, w2 = 0.00482 | 98.89 ± 0.59
80.93 K, w2 = 0.0051 | 98.9 ± 0.59
81.42 K, w2 = 0.0169 | 89.1 ± 0.55
83.2 K, w2 = 0.00482 | 100.65 ± 0.6
83.26 K, w2 = 0.0051 | 100.45 ± 0.6
83.41 K, w2 = 0.0169 | 90.19 ± 0.55
84.28 K, w2 = 0.0495 | 71.58 ± 0.46
85.41 K, w2 = 0.0169 | 91.5 ± 0.56
85.62 K, w2 = 0.0051 | 101.93 ± 0.61
85.71 K, w2 = 0.00482 | 102.22 ± 0.61
86.99 K, w2 = 0.0495 | 72.97 ± 0.46
87.41 K, w2 = 0.0169 | 92.8 ± 0.56
87.99 K, w2 = 0.0051 | 103.55 ± 0.62
88.22 K, w2 = 0.00482 | 103.95 ± 0.62
89.41 K, w2 = 0.0169 | 94.12 ± 0.57
89.64 K, w2 = 0.0495 | 74.29 ± 0.47
90.39 K, w2 = 0.0051 | 105.19 ± 0.62
90.73 K, w2 = 0.00482 | 105.63 ± 0.62
91.42 K, w2 = 0.0169 | 95.27 ± 0.58
92.3 K, w2 = 0.0495 | 75.61 ± 0.5
92.8 K, w2 = 0.0051 | 106.81 ± 0.63
93.24 K, w2 = 0.00482 | 107.29 ± 0.63
93.42 K, w2 = 0.0169 | 96.43 ± 0.59
94.99 K, w2 = 0.0495 | 76.9 ± 0.51
95.24 K, w2 = 0.0051 | 108.32 ± 0.63
95.42 K, w2 = 0.0169 | 97.66 ± 0.59
95.77 K, w2 = 0.00482 | 108.86 ± 0.64
97.43 K, w2 = 0.0169 | 98.68 ± 0.6
97.68 K, w2 = 0.0051 | 109.8 ± 0.64
97.69 K, w2 = 0.0495 | 78.16 ± 0.51
98.29 K, w2 = 0.00482 | 110.42 ± 0.64
99.44 K, w2 = 0.0169 | 99.85 ± 0.6
100.14 K, w2 = 0.0051 | 111.32 ± 0.64
100.41 K, w2 = 0.0495 | 79.41 ± 0.52
100.82 K, w2 = 0.00482 | 111.94 ± 0.65
101.45 K, w2 = 0.0169 | 101.05 ± 0.6
102.61 K, w2 = 0.0051 | 112.8 ± 0.65
103.15 K, w2 = 0.0495 | 80.66 ± 0.52
103.35 K, w2 = 0.00482 | 113.4 ± 0.65
103.46 K, w2 = 0.0169 | 102.17 ± 0.61
105.09 K, w2 = 0.0051 | 114.19 ± 0.66
105.47 K, w2 = 0.0169 | 103.12 ± 0.61
105.88 K, w2 = 0.00482 | 114.89 ± 0.66
105.9 K, w2 = 0.0495 | 81.82 ± 0.53
107.49 K, w2 = 0.0169 | 104.29 ± 0.62
107.59 K, w2 = 0.0051 | 115.72 ± 0.66
108.42 K, w2 = 0.00482 | 116.33 ± 0.67
108.67 K, w2 = 0.0495 | 83.08 ± 0.53
109.51 K, w2 = 0.0169 | 105.26 ± 0.62
110.1 K, w2 = 0.0051 | 117.14 ± 0.67
110.97 K, w2 = 0.00482 | 117.75 ± 0.67
111.45 K, w2 = 0.0495 | 84.27 ± 0.54
111.54 K, w2 = 0.0169 | 106.2 ± 0.62
112.61 K, w2 = 0.0051 | 118.54 ± 0.67
113.51 K, w2 = 0.00482 | 119.17 ± 0.68
113.57 K, w2 = 0.0169 | 107.35 ± 0.63
114.24 K, w2 = 0.0495 | 85.5 ± 0.54
115.14 K, w2 = 0.0051 | 119.96 ± 0.68
115.6 K, w2 = 0.0169 | 108.36 ± 0.63
116.06 K, w2 = 0.00482 | 120.61 ± 0.68
117.04 K, w2 = 0.0495 | 86.65 ± 0.55
117.63 K, w2 = 0.0169 | 109.39 ± 0.64
117.68 K, w2 = 0.0051 | 121.3 ± 0.69
118.63 K, w2 = 0.00482 | 121.93 ± 0.69
119.66 K, w2 = 0.0169 | 110.42 ± 0.64
119.84 K, w2 = 0.0495 | 87.83 ± 0.55
120.23 K, w2 = 0.0051 | 122.75 ± 0.69
121.18 K, w2 = 0.00482 | 123.35 ± 0.69
121.69 K, w2 = 0.0169 | 111.46 ± 0.65
122.66 K, w2 = 0.0495 | 89.01 ± 0.56
122.78 K, w2 = 0.0051 | 124.09 ± 0.7
123.73 K, w2 = 0.0169 | 112.39 ± 0.65
123.74 K, w2 = 0.00482 | 124.71 ± 0.7
125.34 K, w2 = 0.0051 | 125.46 ± 0.7
125.48 K, w2 = 0.0495 | 90.15 ± 0.56
125.77 K, w2 = 0.0169 | 113.34 ± 0.65
126.3 K, w2 = 0.00482 | 126.04 ± 0.7
127.81 K, w2 = 0.0169 | 114.42 ± 0.66
127.91 K, w2 = 0.0051 | 126.77 ± 0.71
128.32 K, w2 = 0.0495 | 91.34 ± 0.57
128.86 K, w2 = 0.00482 | 127.4 ± 0.71
129.85 K, w2 = 0.0169 | 115.33 ± 0.66
130.48 K, w2 = 0.0051 | 128.21 ± 0.71
131.16 K, w2 = 0.0495 | 92.52 ± 0.57
131.42 K, w2 = 0.00482 | 128.75 ± 0.72
131.9 K, w2 = 0.0169 | 116.36 ± 0.67
133.06 K, w2 = 0.0051 | 129.58 ± 0.72
133.95 K, w2 = 0.0169 | 117.4 ± 0.67
134 K, w2 = 0.00482 | 130.13 ± 0.72
134 K, w2 = 0.0495 | 93.65 ± 0.57
135.64 K, w2 = 0.0051 | 131 ± 0.72
136 K, w2 = 0.0169 | 118.35 ± 0.67
136.57 K, w2 = 0.00482 | 131.47 ± 0.73
136.85 K, w2 = 0.0495 | 94.81 ± 0.58
138.05 K, w2 = 0.0169 | 119.43 ± 0.68
139.14 K, w2 = 0.00482 | 132.79 ± 0.73
139.19 K, w2 = 0.0051 | 132.51 ± 0.73
139.7 K, w2 = 0.0495 | 95.99 ± 0.58
140.1 K, w2 = 0.0169 | 120.24 ± 0.68
141.87 K, w2 = 0.0051 | 133.88 ± 0.74
142.16 K, w2 = 0.0169 | 121.29 ± 0.69
142.55 K, w2 = 0.0495 | 97.17 ± 0.59
143.39 K, w2 = 0.00482 | 135 ± 0.74
144.23 K, w2 = 0.0169 | 122.36 ± 0.69
144.46 K, w2 = 0.0051 | 135.42 ± 0.74
145.41 K, w2 = 0.0495 | 98.38 ± 0.59
145.73 K, w2 = 0.00482 | 136.26 ± 0.74
146.29 K, w2 = 0.0169 | 123.43 ± 0.69
147.05 K, w2 = 0.0051 | 136.72 ± 0.75
148.27 K, w2 = 0.0495 | 99.58 ± 0.6
148.31 K, w2 = 0.00482 | 137.61 ± 0.75
148.35 K, w2 = 0.0169 | 124.38 ± 0.7
149.65 K, w2 = 0.0051 | 138.06 ± 0.75
150.42 K, w2 = 0.0169 | 125.3 ± 0.7
150.89 K, w2 = 0.00482 | 138.87 ± 0.75
151.13 K, w2 = 0.0495 | 100.83 ± 0.6
152.25 K, w2 = 0.0051 | 139.46 ± 0.76
152.48 K, w2 = 0.0169 | 126.38 ± 0.71

101.3 kPa, Glass, w2 = 0.00482
Conditions | molar heat capacity at constant pressure [J/K/mol]
82.79 K | 103.56 ± 0.62
85.01 K | 105.32 ± 0.63
87.51 K | 107.36 ± 0.64
90.01 K | 109.3 ± 0.64
92.52 K | 111.32 ± 0.64
95.02 K | 113.23 ± 0.65
99.79 K | 116.7 ± 0.67
102.06 K | 118.31 ± 0.67
104.58 K | 120.07 ± 0.68
107.1 K | 121.78 ± 0.69
109.63 K | 123.51 ± 0.69
112.16 K | 125.21 ± 0.7
114.69 K | 126.86 ± 0.71
117.23 K | 128.48 ± 0.71
119.76 K | 130.09 ± 0.72
122.3 K | 131.74 ± 0.73
124.85 K | 133.4 ± 0.73
127.39 K | 135.01 ± 0.74
129.94 K | 136.58 ± 0.75
132.49 K | 138.2 ± 0.75
135.04 K | 139.78 ± 0.76
137.59 K | 141.4 ± 0.77
140.15 K | 142.95 ± 0.77
142.71 K | 144.57 ± 0.78
145.27 K | 146.31 ± 0.79
147.83 K | 147.89 ± 0.79
150.39 K | 149.45 ± 0.8
